Test results: the NIST ThermoML archive (doi:10.1016/j.jct.2018.02.022)

Experiment: xn = mol fraction of the nth substance listed
Details: 293.15 K, 92.3 kPa, Liquid; for viscosity: Concentric cylinders viscometry; for speed of sound: Frequency=3 MHz, Single path-length method; for mass density: Vibrating tube method

OCCOCCOCCO [triethylene glycol] + O
Details	mass density [kg/m3]	speed of sound [m/s]	viscosity [mPa·s]
x1 = 0.0101	1009.83	1526.7	–
x1 = 0.0196	1019.71	1563.3	–
x1 = 0.025	1024.91	–	1.881
x1 = 0.029	1028.88	1595.7	–
x1 = 0.0381	1036.74	1622.5	–
x1 = 0.0489	1044.89	–	2.921
x1 = 0.0496	1045.76	1651.6	–
x1 = 0.0601	1053.18	1673.8	–
x1 = 0.0689	1058.69	1689	–
x1 = 0.0754	1062.23	–	4.368
x1 = 0.0801	1065	1704.9	–
x1 = 0.0905	1070.23	1716.5	–
x1 = 0.0993	1074.35	–	5.989
x1 = 0.0996	1074.38	1724.7	–
x1 = 0.1479	1090.64	1744.5	–
x1 = 0.15	1091.94	–	10.19
x1 = 0.1993	1101.82	–	14.46
x1 = 0.2004	1101.27	1742	–
x1 = 0.2462	1107.12	1732.1	–
x1 = 0.2526	1107.94	–	19.41
x1 = 0.2998	1111.26	–	23.57
x1 = 0.3004	1111.57	1718.2	–
x1 = 0.3474	1114.22	1706.1	–
x1 = 0.3539	1113.94	–	27.83
x1 = 0.3948	1116.15	1694.8	–
x1 = 0.4009	1115.83	–	31.2
x1 = 0.4467	1117.71	1683.9	–
x1 = 0.4492	1117.53	–	34.1
x1 = 0.4992	1119.04	–	36.67
x1 = 0.5021	1118.97	1673.6	–
x1 = 0.548	1119.77	1666.3	–
x1 = 0.5484	1120.2	–	38.84
x1 = 0.5923	1120.43	1660	–
x1 = 0.5996	1121.03	–	40.64
x1 = 0.6442	1121.04	1653.7	–
x1 = 0.6506	1121.46	–	42.15
x1 = 0.701	1121.62	–	43.67
x1 = 0.7095	1121.66	1647	–
x1 = 0.7531	1122.03	1642.9	–
x1 = 0.7567	1121.7	–	44.87
x1 = 0.7859	1122.28	1640.2	–
x1 = 0.8035	1121.91	–	45.73
x1 = 0.8387	1122.62	1636.5	–
x1 = 0.8406	1122.25	–	46.36
x1 = 0.8981	1123.02	–	46.96
x1 = 0.9031	1123.01	1632.1	–
x1 = 0.9181	1123.08	1631.3	–
x1 = 0.9344	1123.16	1630.5	–
x1 = 0.9489	1123.57	–	47.64
x1 = 0.9569	1123.28	1629.2	–
x1 = 0.9782	1123.37	1628.1	–
x1 = 1	1123.48	1626.8	48.06
